We go through five compounds from ChEMBL document CHEMBL1201862, “PubChem BioAssay data set” (2004).

In experiment [1] the target is T1, Probable nicotinate-nucleotide adenylyltransferase (Staphylococcus aureus (strain N315), UniProt P65502). The format is functional, Staphylococcus aureus subsp. aureus N315. The conditions noted are these: read-out: IC50_Mean.
In experiment [2] the target is T2, Small ubiquitin-related modifier 1 (Homo sapiens, UniProt P63165). The experiment in a line: SUMO1 protein interaction blockers, potency – biochemical, fluorescence polarization, uHTS hits, dose response (AID 624382). The format is functional. To be noted: read-out: IC50_Mean.
Experiment [3] addresses T2, Small ubiquitin-related modifier 1. In words: SUMO1 protein-protein binding blockers, potency – biochemical, FRET, dose response (AID 624383). The conditions noted are these: read-out: IC50_Mean. The format is functional.
In experiment [4] the target is DNA (cytosine-5)-methyltransferase 1 (Homo sapiens, UniProt P26358). In words: inhibition of DNA methylation by DNMT1 – biochemical, fluorescent molecular beacon, confirmation (AID 602386). The format is functional.
The target of experiment [5] is T3, Small ubiquitin-related modifier 2 (Homo sapiens, UniProt P61956). The experiment in a line: SUMO2 binding disruption by SUMO1 hits – biochemical, FRET, human SUMO2, uHTS hits, selectivity assay for SUMO1 interaction inhibitor project, dose response (AID 624384). The format is functional. To be noted: read-out: IC50_Mean.
Another experiment concerns the target Beta-galactosidase (Escherichia coli, UniProt Q8VNN2). The experiment in a line: detection-enzyme interference by beta-gal modulators – biochemical, E. coli enzyme, set 3, artefact control for CCR6 antagonist project, dose response (AID 504712). The format is functional.
Experiment [6] concerns the target T3, Small ubiquitin-related modifier 2. In words: disruption of SUMO2 interaction with SIM peptide – biochemical, fluorescence polarization, uHTS hits, selectivity assay for SUMO1 interaction inhibitor project, dose response (AID 624385). The conditions noted are these: read-out: IC50_Mean. The format is functional. For orientation: Fluorescence polarisation rises when a labelled molecule tumbles more slowly, as on binding a larger partner.

The target of experiment [7] is T1, Probable nicotinate-nucleotide adenylyltransferase. The format is functional, Staphylococcus aureus subsp. aureus N315.
The target of experiment [8] is Heat shock protein HSP 90-alpha (Homo sapiens, UniProt P07900). In words: Luminescence-based dose response biochemical high throughput screening assay for inhibitors of the Heat Shock Protein 90 (HSP90). [Related pubchem assays: 1831 (Summary AID.), 1846 (Confirmation screen.), 1789 (Primary screen.)].
Experiment [9] addresses T4, Heat shock factor protein 1 (Mus musculus, UniProt P38532).
T4 sequence (P38532 whole entry): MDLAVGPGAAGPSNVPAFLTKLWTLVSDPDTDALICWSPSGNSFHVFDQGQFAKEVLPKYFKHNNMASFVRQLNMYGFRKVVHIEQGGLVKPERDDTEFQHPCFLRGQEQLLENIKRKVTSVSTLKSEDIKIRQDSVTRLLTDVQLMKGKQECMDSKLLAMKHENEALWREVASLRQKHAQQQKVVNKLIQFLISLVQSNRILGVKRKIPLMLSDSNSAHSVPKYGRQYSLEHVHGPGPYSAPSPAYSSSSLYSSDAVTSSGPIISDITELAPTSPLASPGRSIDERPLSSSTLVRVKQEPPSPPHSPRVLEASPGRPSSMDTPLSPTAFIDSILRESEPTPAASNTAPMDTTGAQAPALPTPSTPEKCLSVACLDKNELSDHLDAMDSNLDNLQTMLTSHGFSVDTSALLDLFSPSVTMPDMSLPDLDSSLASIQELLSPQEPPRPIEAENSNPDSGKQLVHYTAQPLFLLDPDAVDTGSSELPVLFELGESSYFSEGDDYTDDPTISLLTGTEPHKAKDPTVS
The experiment in a line: decrease of HSF1-responsive luciferase luminescence – cell-based, NIH3T3, dose retest, confirmation (AID 2382).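 Also: NIH3T3 fibroblasts with HSF1-driven luciferase reporter stressed by proteasome inhibitor MG132; luminescence from HSF1-driven luciferase expression after 8 hours of MG132 stress.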 The format is functional.

Experiment [10] is described as follows: HEK-293T cell viability reduction – luminescence, B-cell screen hits, cytotoxicity control for BCR NF-kB inhibitor project, dose response (AID 489021).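 Also: HEK-293T cells carrying an NF-kB luciferase reporter; cells exposed to compound for about 14 hours before viability readout.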 The format is functional, cell-based.
The target in experiment [11] is T5, RNA-binding protein pos-1 (Caenorhabditis elegans, UniProt G5EF15).
T5 sequence (G5EF15 whole entry): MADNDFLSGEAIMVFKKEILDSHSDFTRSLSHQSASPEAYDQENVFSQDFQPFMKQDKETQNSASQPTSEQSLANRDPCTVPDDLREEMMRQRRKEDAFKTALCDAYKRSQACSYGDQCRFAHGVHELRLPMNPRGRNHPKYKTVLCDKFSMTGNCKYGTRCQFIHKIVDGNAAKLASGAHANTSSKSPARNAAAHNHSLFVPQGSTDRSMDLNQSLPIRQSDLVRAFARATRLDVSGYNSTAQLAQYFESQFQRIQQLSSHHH
The experiment in a line: disruptors of C. elegans POS-1 RNA interaction – biochemical, fluorescence polarization, dose response (AID 1964).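 Also: purified POS-1 fused to maltose binding protein made in E. coli; potency of compounds blocking POS-1 binding to fluorescent RNA.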

The next experiment addresses Protein Rev (Human immunodeficiency virus type 1 group M subtype B (isolate HXB2)(HIV-1), UniProt P04618). The experiment in a line: blockers of HIV Rev/RRE RNA complex – biochemical, fluorescence polarization, HIV-1, dose response (AID 434976). Also noted: species or system Human immunodeficiency virus 1.
For experiment [12], the target named is Female germline-specific tumor suppressor gld-1 (Caenorhabditis elegans, UniProt Q17339). The experiment in a line: blockers of GLD-1/TGE RNA complex formation – biochemical, fluorescence polarization, C. elegans, dose response (AID 2802).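 Also: fluorescence polarization of labeled TGE RNA bound by purified gld-1 protein.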
Experiment [13] addresses T6, Zinc finger protein mex-5 (Caenorhabditis elegans, UniProt Q9XUB2).
T6 sequence (Q9XUB2 whole entry): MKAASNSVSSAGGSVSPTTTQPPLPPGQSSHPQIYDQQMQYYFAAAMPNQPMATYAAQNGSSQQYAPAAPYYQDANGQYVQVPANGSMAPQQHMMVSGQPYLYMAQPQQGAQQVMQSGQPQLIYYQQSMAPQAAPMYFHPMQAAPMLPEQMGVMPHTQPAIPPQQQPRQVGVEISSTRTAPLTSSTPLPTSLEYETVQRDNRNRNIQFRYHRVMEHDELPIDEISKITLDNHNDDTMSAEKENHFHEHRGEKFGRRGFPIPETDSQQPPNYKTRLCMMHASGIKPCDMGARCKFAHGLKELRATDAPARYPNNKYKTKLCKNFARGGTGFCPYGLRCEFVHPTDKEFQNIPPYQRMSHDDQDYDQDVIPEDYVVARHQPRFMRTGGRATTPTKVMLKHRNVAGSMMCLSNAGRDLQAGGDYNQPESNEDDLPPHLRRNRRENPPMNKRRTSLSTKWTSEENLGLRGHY
The experiment in a line: potency of MEX-5 RNA-binding blockers – biochemical, C. elegans, fluorescence polarization, dose response (AID 1960).

Experiment [14] in a line: HPDE-C7 pancreatic duct cell viability loss – fluorescence, HTS (AID 430). The format is functional, cell-based. To be noted: Homo sapiens.
A short description of experiment [15]: NIH3T3 cell viability loss – ATP luminescence, mouse fibroblasts, counter-screen, dose response (AID 2010).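 Also: cells exposed to compound for about 90 hours before reading.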 The format is functional, cell-based. In general terms: The purpose of a counterscreen is to sort out artefacts and off-target activity.
The target in experiment [16] is Phosphoethanolamine/phosphocholine phosphatase (Homo sapiens, UniProt Q8TCT1). The experiment in a line: SAR assay for compounds that inhibit PHOSPHO1. [Related pubchem assays (depositor defined):AID1545, AID1565, AID1574].
The nature of experiment [17]: Trypanosoma cruzi growth suppression in host cells – NIH3T3 host cells, beta-gal luminescence, confirmation (AID 2044).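 Also: intracellular parasites grown in NIH/3T3 mouse fibroblasts as host cells; luminescent beta-galactosidase reporter signal from transgenic T. cruzi replicating inside host cells; inhibitors lower the luminescence signal.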 The format is functional, cell-based.
A short description of experiment [18]: viability loss of HPDE-C7K cells – cell-based, fluorescence, HTS, primary screen (AID 431). The format is functional. The conditions noted are these: Homo sapiens.
In experiment [19] the target is T7, Mannose-6-phosphate isomerase (Homo sapiens, UniProt P34949).
T7 sequence (P34949 whole entry): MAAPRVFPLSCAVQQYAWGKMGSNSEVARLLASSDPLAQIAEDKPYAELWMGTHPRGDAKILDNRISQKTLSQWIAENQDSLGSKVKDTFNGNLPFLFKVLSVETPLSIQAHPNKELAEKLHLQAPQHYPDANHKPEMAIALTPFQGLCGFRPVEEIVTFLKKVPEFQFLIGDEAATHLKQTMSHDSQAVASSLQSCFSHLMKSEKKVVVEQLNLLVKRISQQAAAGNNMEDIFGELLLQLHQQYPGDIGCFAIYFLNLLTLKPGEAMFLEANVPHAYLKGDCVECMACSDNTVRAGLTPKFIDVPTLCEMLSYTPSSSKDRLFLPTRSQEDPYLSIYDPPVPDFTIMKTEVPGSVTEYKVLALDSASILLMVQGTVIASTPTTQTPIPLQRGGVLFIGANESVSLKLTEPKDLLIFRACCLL
In words: phosphomannose isomerase inhibition – biochemical, fluorescence intensity, confirmation (AID 1535).

Experiment [20] deals with Glucose-6-phosphate 1-dehydrogenase (Homo sapiens, UniProt P11413). In words: inhibition of Homo sapiens G6PD, dose series – biochemical, fluorescence, selectivity assay for P. falciparum G6PD inhibitor project, dose response (AID 504792). The format is functional.
For a further experiment, the target named is Phosphomannomutase 2 (Homo sapiens, UniProt O15305). The experiment in a line: Counter screen SAR assay for PMM2 inhibitors via a fluorescence intensity assay. [Related pubchem assays (depositor defined):AID1545, AID1574].
A further experiment deals with Nonstructural protein 1 (Influenza A virus, UniProt Q194T2). The format is functional, Influenza A virus (A/California/07/2009(H1N1)).
The nature of experiment [21]: THP-1 cell cytotoxicity, dose response, cytotoxicity control for non-replicating M. tuberculosis project (AID 489025). The format is functional.
Experiment [22] deals with Serine/threonine-protein phosphatase (Homo sapiens, UniProt Q9BPW0). In words: Counterscreen for inhibitors of PP1: fluorescence-based biochemical high throughput dose response assay to identify inhibitors of Protein Phosphatase 5 (PP5). [Related pubchem assays: 2034 (Summary (PP5 inhibitors)), 1987 (PP5 inhibitors in singlate), 2235 (PP1 inhibitors in singlate)].
Experiment [23] has as its target Voltage-dependent T-type calcium channel subunit alpha-1H (Homo sapiens, UniProt O95180). The format is functional.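 Also: channel activity triggered by adding a high calcium stimulation buffer.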
Another experiment can be described thus: cells. The format is functional.
Experiment [24] is described as follows: Vero E6 cell cytotoxicity, dose response, cytotoxicity control for non-replicating M. tuberculosis project, secondary assay (AID 492998). The format is functional, VeroE6. To be noted: Vero C1008.
Experiment [25] has as its target Glyceraldehyde-3-phosphate dehydrogenase (Homo sapiens, UniProt P04406).
In experiment [26] the target is Serine/threonine-protein phosphatase PP1-alpha catalytic subunit (Homo sapiens, UniProt P62136). The experiment in a line: inhibition of protein phosphatase 1 activity – biochemical, fluorescence, dose response (AID 2403).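 Also: phosphatase turnover of OMFP into fluorescent 3-O-methylfluorescein.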

Activity calls are given as the source filed them.

T3 sequence (P61956 whole entry): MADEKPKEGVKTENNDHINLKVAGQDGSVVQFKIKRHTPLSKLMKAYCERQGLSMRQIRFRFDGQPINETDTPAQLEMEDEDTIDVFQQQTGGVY
T1 sequence (P65502 whole entry): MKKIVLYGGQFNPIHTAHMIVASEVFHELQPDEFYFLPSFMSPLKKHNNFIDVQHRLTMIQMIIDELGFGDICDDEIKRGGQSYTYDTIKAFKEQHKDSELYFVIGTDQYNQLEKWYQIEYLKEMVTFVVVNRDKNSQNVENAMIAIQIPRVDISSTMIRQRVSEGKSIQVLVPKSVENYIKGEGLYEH
T2 sequence (P63165 whole entry): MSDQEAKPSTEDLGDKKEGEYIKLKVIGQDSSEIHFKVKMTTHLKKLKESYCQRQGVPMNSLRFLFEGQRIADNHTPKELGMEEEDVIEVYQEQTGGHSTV
Sequence of DNA (cytosine-5)-methyltransferase 1 (P26358 whole entry): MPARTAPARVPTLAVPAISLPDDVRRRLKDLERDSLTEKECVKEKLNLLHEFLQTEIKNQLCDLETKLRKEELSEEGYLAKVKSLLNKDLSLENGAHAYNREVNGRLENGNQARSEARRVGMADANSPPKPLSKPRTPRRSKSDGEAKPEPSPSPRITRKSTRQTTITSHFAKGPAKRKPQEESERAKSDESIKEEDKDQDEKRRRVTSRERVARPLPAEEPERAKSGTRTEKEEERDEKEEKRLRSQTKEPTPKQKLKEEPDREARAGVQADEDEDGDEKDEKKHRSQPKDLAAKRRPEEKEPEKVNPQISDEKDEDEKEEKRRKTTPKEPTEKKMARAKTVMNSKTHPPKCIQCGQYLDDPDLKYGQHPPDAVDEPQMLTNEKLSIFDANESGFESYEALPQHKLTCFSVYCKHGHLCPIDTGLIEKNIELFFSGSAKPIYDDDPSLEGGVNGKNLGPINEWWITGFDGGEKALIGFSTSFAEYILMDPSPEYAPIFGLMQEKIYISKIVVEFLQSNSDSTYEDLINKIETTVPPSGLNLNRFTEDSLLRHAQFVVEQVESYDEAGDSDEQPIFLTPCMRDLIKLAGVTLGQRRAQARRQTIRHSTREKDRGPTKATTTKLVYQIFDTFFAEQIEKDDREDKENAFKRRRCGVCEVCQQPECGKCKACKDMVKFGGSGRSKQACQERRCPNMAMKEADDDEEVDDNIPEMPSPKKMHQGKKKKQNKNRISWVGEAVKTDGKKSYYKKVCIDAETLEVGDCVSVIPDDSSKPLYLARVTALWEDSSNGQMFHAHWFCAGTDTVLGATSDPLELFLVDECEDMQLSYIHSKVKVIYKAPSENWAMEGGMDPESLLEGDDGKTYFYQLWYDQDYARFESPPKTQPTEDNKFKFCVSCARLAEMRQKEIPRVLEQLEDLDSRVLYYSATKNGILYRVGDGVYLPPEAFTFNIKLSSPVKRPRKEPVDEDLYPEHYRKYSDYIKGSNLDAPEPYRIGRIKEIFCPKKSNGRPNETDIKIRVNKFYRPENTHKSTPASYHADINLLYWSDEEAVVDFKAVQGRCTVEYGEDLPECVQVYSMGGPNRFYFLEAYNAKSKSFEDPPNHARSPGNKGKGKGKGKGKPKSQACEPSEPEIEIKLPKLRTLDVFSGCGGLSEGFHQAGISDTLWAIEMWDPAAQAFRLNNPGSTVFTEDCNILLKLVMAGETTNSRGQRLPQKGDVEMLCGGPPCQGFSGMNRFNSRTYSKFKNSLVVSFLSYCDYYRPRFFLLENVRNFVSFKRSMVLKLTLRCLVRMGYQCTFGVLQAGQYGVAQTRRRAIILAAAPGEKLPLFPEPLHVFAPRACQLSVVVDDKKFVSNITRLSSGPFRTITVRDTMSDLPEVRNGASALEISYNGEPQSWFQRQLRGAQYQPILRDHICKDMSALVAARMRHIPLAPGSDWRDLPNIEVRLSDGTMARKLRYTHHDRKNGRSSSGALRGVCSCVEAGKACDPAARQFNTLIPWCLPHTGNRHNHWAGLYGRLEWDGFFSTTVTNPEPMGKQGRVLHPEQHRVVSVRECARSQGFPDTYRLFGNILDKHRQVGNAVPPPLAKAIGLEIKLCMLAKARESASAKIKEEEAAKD
Sequence of Glucose-6-phosphate 1-dehydrogenase (P11413 whole entry): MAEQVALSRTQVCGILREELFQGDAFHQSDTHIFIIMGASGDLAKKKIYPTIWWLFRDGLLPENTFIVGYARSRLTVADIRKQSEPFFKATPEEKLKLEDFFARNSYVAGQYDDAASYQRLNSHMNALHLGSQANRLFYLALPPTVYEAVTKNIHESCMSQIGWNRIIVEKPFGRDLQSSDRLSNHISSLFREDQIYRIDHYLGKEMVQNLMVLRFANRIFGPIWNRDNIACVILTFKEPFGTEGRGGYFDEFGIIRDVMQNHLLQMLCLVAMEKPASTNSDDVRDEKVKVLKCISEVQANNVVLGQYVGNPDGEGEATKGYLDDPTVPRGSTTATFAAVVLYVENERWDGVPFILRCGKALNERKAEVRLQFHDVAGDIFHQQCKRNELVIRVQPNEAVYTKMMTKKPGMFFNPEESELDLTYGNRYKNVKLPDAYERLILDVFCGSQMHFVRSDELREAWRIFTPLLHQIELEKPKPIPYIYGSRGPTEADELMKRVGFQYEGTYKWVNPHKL
Sequence of Serine/threonine-protein phosphatase PP1-alpha catalytic subunit (P62136 whole entry): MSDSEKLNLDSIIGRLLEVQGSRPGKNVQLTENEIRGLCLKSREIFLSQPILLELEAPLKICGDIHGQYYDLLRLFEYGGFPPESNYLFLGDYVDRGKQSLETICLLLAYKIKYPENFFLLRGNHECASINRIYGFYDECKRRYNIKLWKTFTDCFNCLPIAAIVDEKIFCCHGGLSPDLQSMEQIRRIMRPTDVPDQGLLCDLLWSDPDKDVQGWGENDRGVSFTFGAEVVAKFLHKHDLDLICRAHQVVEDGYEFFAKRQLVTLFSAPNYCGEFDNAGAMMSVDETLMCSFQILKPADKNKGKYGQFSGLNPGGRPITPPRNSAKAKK
Sequence of Nonstructural protein 1 (Q194T2 whole entry): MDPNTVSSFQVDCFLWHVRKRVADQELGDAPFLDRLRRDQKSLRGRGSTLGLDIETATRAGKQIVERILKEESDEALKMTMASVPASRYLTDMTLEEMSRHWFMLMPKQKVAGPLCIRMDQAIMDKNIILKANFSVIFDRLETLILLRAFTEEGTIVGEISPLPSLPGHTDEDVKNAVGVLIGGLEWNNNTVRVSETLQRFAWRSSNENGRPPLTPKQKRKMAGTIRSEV
Sequence of Serine/threonine-protein phosphatase (Q9BPW0 whole entry): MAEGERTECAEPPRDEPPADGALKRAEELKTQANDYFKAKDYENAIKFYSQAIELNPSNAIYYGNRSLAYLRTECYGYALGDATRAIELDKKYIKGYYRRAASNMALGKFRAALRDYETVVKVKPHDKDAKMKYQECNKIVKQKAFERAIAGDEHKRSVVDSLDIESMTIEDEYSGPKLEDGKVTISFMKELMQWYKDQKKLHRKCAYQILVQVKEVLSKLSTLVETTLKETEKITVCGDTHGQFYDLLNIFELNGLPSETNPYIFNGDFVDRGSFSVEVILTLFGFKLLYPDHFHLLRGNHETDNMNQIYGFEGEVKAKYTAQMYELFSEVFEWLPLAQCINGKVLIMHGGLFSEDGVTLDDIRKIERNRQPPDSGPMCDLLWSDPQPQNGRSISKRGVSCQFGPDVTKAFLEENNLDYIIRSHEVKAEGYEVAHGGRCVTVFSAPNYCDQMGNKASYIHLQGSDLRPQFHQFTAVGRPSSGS
Sequence of Phosphomannomutase 2 (O15305 whole entry): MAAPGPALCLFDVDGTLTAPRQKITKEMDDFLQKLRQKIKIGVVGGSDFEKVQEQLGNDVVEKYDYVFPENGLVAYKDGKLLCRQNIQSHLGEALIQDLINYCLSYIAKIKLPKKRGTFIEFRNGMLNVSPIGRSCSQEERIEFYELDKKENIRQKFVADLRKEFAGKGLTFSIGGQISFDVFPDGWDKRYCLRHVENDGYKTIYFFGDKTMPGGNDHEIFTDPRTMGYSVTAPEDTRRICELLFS
Sequence of Beta-galactosidase (Q8VNN2 whole entry): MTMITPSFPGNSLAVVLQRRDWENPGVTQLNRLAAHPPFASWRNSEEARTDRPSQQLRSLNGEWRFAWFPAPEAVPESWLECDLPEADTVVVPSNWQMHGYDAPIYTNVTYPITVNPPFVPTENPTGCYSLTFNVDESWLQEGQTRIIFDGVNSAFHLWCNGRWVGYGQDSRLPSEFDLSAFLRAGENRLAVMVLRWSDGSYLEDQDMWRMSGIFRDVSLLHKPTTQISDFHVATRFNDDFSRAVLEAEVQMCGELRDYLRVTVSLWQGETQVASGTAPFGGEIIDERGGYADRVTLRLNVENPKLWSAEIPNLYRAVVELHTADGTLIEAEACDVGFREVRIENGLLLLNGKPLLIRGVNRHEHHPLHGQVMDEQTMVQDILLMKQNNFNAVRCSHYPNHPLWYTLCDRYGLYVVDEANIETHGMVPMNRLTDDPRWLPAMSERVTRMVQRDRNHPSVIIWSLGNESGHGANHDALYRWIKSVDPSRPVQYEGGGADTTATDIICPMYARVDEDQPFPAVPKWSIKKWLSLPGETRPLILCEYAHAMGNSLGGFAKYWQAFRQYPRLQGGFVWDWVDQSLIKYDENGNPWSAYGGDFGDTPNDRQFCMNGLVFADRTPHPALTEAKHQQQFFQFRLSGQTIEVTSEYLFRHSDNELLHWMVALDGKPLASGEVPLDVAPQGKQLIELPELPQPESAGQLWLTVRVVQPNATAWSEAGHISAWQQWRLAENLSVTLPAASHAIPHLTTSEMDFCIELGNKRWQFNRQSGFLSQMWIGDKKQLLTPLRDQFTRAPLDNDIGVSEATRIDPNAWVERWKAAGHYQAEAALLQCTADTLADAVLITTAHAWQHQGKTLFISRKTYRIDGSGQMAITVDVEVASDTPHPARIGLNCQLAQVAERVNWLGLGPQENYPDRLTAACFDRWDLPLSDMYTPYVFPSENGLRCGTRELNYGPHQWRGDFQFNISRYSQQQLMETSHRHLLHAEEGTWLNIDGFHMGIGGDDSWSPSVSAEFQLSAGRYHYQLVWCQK
Sequence of Protein Rev (P04618 whole entry): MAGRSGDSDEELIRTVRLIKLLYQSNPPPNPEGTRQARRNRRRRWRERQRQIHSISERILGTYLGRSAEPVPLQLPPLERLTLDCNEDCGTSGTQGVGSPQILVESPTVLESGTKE

For `CCOc1ccc(C=NNc2ccc(S(=O)(=O)Nc3ccccc3C(=O)O)cc2[N+](=O)[O-])cc1`, the IC50 in [1] was 15.6 µM (active); in experiment [2], 4.41 µM (active); in [3], 51.3 µM (inactive); in experiment [4], 5.78 µM (active); in experiment [5], > 66 µM (inactive); at Beta-galactosidase, > 66.6 µM (inactive). Further, the results for the IC50 in experiment [6] and in experiment [7] were 3.67 µM (active) and 7.56 µM (active), respectively.

The EC50 is the concentration that produces a half-maximal response. With `Cc1ccc(/C=C2\SC(=S)N(CCCC(=O)Nc3ccccn3)C2=O)cc1`, the figures for the IC50 in [8] and in experiment [10] were 17.8 µM (not active) and > 80 µM (inactive), respectively. In [9], the EC50 is 1.51 µM (active).

In the case of `CCCCN(C(=O)c1ccc([N+](=O)[O-])o1)c1c(N)n(CC(C)C)c(=O)[nH]c1=O`, the concentration giving a half-maximal response (EC50) is 18.7 µM (active) in [11] and 16 µM (active) in experiment [13]. The IC50 on Protein Rev is 7.26 µM (active); in experiment [12], 2.74 µM (active).

On to `O=c1c2ccccc2sn1-c1ccc(S(=O)(=O)N2CCCC2)cc1`, for which the EC50 in [14] was > 20 µM (not active); in experiment [15], > 30 µM (not active); in experiment [17], 1.29 µM (active); in [18], > 20 µM (not active). Moreover, the IC50 in experiment [16] is 0.489 µM (active); in experiment [19], > 50 µM (inactive); in experiment [20], 30.7 µM (inactive); on Phosphomannomutase 2 it was > 100 µM (inactive).

What is called CC50 is the concentration at which the toxic effect on the cells reaches its halfway point. For `Cc1cccc(Nc2nc(-c3ccccn3)cs2)n1`, the results for the concentration for a half-maximal effect (EC50) in experiment [15], in experiment [17] and in [23] were 8.56 µM (active), 0.503 µM (active) and 7.24 µM (active), respectively. The IC50 is 29.6 µM (active) on Nonstructural protein 1; > 22.3 µM (not active) in experiment [22]; 0.27 µM (active) in “cells”; > 10 µM (inconclusive) in experiment [25]; 4.96 µM (active) in experiment [26]. For the same compound, the CC50 in experiment [21] was 21.8 µM (active); in experiment [24] it was 11.6 µM (active).
